We go through ten compounds from patent US20250257034A1, “INDOLE DERIVATIVES AS SEROTONERGIC AGENTS USEFUL FOR THE TREATMENT OF DISORDERS RELATED THERETO” (priority 2023, published 2025).

For orientation: IC50 means the concentration that gives 50% inhibition. For orientation: Ki means a dissociation constant, usually derived from enzyme kinetics or from competition with a known ligand.

The target in one experiment is T1, human 5-HT1A receptor (Homo sapiens, UniProt P08908).
T1 sequence (P08908 1-422): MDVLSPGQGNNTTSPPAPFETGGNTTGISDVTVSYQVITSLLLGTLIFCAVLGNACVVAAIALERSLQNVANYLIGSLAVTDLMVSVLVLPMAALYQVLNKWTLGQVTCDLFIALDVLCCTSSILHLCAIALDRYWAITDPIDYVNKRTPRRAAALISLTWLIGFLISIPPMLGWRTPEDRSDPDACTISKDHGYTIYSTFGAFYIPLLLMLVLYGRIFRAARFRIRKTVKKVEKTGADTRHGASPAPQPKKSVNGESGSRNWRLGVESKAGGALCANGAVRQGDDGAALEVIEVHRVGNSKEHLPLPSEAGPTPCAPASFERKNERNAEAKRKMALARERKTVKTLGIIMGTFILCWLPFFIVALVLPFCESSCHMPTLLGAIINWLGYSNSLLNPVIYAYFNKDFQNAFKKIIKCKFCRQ
Put plainly: Human 5-HT1A radioligand binding assay ([3H]-8-Hydroxy-DPAT). Also on record: expressed in transfected cells; host or cells: HTR1A&Gα15-CHO. How it is done:
The objective of this study was to evaluate the binding properties of test compounds on 5-hydroxytryptamine receptor 1A (5-HT1A).
1. The assay buffer was prepared following Table 21 below.
2. 8 doses of reference and test compounds were prepared starting from 10 mM stock solution as required by 5-fold serial dilutions with 100% (v/v) DMSO.
3. UniFilter-96 GF/B plate was pretreated: • i. 50 μl/well of 0.5% (v/v) PEI was added to UniFilter-96 G F/B plates. The plates were sealed and incubated at 4° C. for 3 hrs. • ii. After incubation, the plates were washed 3 times with ice-cold wash buffer (50 mM Tris, pH7.4).
4. Assay plate was prepared: • i. Cell membrane was diluted with assay buffer and 100 μl/well was added to 96 round well plates to reach a concentration of 20 μg/well. • ii. 8 concentrations of reference or test compounds were prepared and 50 μl/well was added to 96 round deep well plates. • iii. [3H]-8-Hydroxy-DPAT was diluted with assay buffer to 2 nM (4×final concentration) and 50 μl/well was added to 96 round well plates.
5. The plate was centrifuged at 1000 rpm for 30 secs and then agitated at 600 rpm, R.T. for 5 min.
6. The plates were sealed, and the plate was incubated at 27° C. for 90 min.
7. The incubation was stopped by vacuum filtration onto GF/B filter plates followed by 4 times washing with ice-cold wash buffer (50 mM Tris, pH7.4).
9. The filter plates were sealed and 40 μl/well of scintillation cocktail was added.
10. The plate was read by using a Microbeta^2 microplate counter.
1. For reference and test compounds, the results were expressed as % Inhibition, using the normalization equation: N=100-100x(U-C2)/(C1-C2), where U is the unknown value, C1 is the average of high controls, and C2 is the average of low controls.
2. The IC50 was determined by fitting percentage of inhibition as a […] of compound concentrations with Hill equation using XLfit.
The objective of this study was to evaluate the binding properties of test compounds on 5-hydroxytryptamine receptor 1A (5-HTA).
1. The assay buffer was prepared following Table 50 below.
3. UniFilter-96 G FIB plate was pretreated: • i. 50 μl/well of 0.5% (v/v) PEI was added to UniFilter-96 G FIB plates. The plates were sealed and incubated at 4° C. for 3 hrs. • ii. After incubation, the plates were washed 3 times with ice-cold wash buffer (50 mM Tris, pH7.4).
6. The plates were sealed and the plate was incubated at 27° C. for 90 min.

A further experiment deals with 5-HT2B receptor (Homo sapiens, UniProt P41595). Put plainly: Human 5-HT2B radioligand binding assay ([3H]-LSD). Also on record: host or cells: cell membrane, dosed as 1 unit/well. The protocol: The objective of this study was to evaluate the binding properties of test compounds on 5-HT2B.
1) The assay buffer was prepared following Table 25-below.
2) Eight doses of reference and test compounds starting from 10 mM stock solution as requested by 5-fold serial dilutions with 100% (v/v) DMSO.
3) UniFilter-96 GF/B plate was pretreated: • a. 50 μl/well of 0.5% (v/v) PEI to UniFilter-96 G F/B plates. The plates were sealed and incubated at 4° C. for 3 hrs. • b. After incubation, the plates were washed 3 times with ice-cold wash buffer (50 mM Tris, pH7.4).
4) Assay plate preparation: • a. Cell membrane was diluted with assay buffer and 330 μl/well added to 96 round deep well plates to reach a concentration of 1 unit/well. • b. Eight concentrations of reference or test compounds were prepared and 110 μl/well added to 96 round deep well plates. • c. [3H]-LSD was diluted with assay buffer to 5 nM (5×final concentration) and 110 μl/well was added to 96 round deep well plates.
5) The plate was centrifuged at 1000 rpm for 30 secs and then agitate at 600 rpm, R.T. for 5 min.
6) The plates were sealed and incubated at 37° C. for 90 min.
7) The incubation was stopped by vacuum filtration onto GF/B filter plates followed by 4 times washing with ice-cold wash buffer (50 mM Tris, pH7.4).
9) The filter plates were sealed and 40 μl/well of scintillation cocktail was added.
10) The plate was read using a Microbeta2 microplate counter.
For reference and test compounds, the results are expressed as % Inhibition, using the normalization equation: N=100-100x(U-C2)/(C1-C2), where U is the unknown value, Cl is the average of high controls, and C2 is the average of low controls. The IC50 is determined by fitting percentage of inhibition as a function of compound concentrations with Hill equation using XLfit.
1) The assay buffer was prepared following Table 54 below.
7) The incubation was stopped by vacuum filtration onto G F/B filter plates followed by 4 times washing with ice-cold wash buffer (50 mM Tris, pH7.4).
For reference and test compounds, the results are expressed as % Inhibition, using the normalization equation: N=100−100×(U−C2)/(C1−C2), where U is the unknown value, C1 is the average of high controls, and C2 is the average of low controls. The IC50 is determined by fitting percentage of inhibition as a function of compound concentrations with Hill equation using XLfit.

Like-named read-outs stand apart in the source and are kept apart here.

5-HT2B receptor, sequence (P41595 whole entry): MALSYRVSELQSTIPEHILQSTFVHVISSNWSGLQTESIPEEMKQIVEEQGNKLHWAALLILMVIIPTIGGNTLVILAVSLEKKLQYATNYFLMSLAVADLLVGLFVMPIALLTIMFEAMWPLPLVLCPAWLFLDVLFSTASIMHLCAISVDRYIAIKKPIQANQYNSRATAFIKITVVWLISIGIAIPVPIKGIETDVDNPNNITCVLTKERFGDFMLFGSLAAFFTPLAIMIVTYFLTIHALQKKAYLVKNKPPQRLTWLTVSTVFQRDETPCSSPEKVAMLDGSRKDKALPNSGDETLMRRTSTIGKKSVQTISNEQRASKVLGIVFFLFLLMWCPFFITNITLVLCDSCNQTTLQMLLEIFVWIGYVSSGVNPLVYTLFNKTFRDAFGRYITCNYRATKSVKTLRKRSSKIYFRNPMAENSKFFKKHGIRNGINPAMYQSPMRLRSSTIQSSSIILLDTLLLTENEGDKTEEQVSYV

For `COc1ccc2[nH]cc(CCN3CC[C@H](OC(F)F)C3)c2c1` [(S) I-67, (S)-3-(2-(3-(Difluoromethoxy)pyrrolidin-1-yl)ethyl)-5-methoxy-1H-indole], the IC50 at human 5-HT1A receptor is 5 nM.

For the compound `CCN(CC)CCc1c[nH]c2ccc(SC)cc12` [Compound I-12, N,N-Diethyl-2-(5-(methylthio)-1H-indol-3-yl)ethan-1-amine], on 5-HT2B receptor, the concentration for half-maximal inhibition (IC50) was found to be 451 nM and the Ki was 233 nM. Moreover, the IC50 at human 5-HT1A receptor was determined as 2 nM.

In the case of `[2H]C([2H])([2H])N(CCc1c[nH]c2ccc(SC)cc12)C([2H])([2H])[2H]` [Compound I-1, N,N-Bis(methyl-d3)-2-(5-(methylthio)-1H-indol-3-yl)ethan-1-amine], on 5-HT2B receptor, the IC50 came out at 74.5 nM and the affinity corresponds to a Ki of 38.6 nM. For the same compound, the IC50 on human 5-HT1A receptor was found to be 3.9 nM.

On human 5-HT1A receptor, `CN(C)CCc1c[nH]c2ccc(OCCOC(F)F)cc12` [Compound I-128, 2-(5-(2-(Difluoromethoxy)ethoxy)-1H-indol-3-yl)-N,N-dimethylethan-1-amine] showed an IC50 of 87 nM.

In the case of `COc1ccc2[nH]cc(CCN3CC[C@@H](OC)C3)c2c1` [(R) I-66, (R)-5-methoxy-3-(2-(3-methoxypyrrolidin-1-yl)ethyl)-1H-indole], on human 5-HT1A receptor, the IC50 amounted to 22 nM.

As to `CSc1ccc2[nH]cc(CCN(C)C(C)C)c2c1` [Compound I-19, N-Methyl-N-(2-(5-(methylthio)-1H-indol-3-yl)ethyl)propan-2-amine], the IC50 on 5-HT2B receptor is 276 nM; at human 5-HT1A receptor, 17 nM. Besides, the Ki on 5-HT2B receptor was 143 nM.

With `COc1ccc2[nH]cc(CCN(C)CCOC(F)F)c2c1` [Compound I-71, 2-(Difluoromethoxy)-N-(2-(5-methoxy-1H-indol-3-yl)ethyl)-N-methylethan-1-amine], the IC50 on 5-HT2B receptor ([3H]-LSD displacement (Table 55), read-out: 5-HT2B, IC50) stood at 171 nM; at human 5-HT1A receptor ([3H]-8-Hydroxy-DPAT displacement (Table 51), read-out: h5-HT1A, IC50), 51 nM. For the same compound, the Ki on 5-HT2B receptor ([3H]-LSD displacement (Table 55), read-out: 5-HT2B, Ki) is 88.6 nM.

Take `CSc1ccc2[nH]cc(CCN(C(C)C)C(C)C)c2c1` [Compound I-17, N-Isopropyl-N-(2-(5-(methylthio)-1H-indol-3-yl)ethyl)propan-2-amine]: at 5-HT2B receptor, the IC50 turned out to be 221 nM and the Ki worked out at 114 nM. On human 5-HT1A receptor, this compound registered an IC50 of 46 nM.

On 5-HT2B receptor, `CCN(C)CCc1c[nH]c2ccc(SC)cc12` [Compound I-13, N-Ethyl-N-methyl-2-(5-(methylthio)-1H-indol-3-yl)ethan-1-amine] returned an IC50 of 64 nM and a Ki of 33.1 nM. At human 5-HT1A receptor, the IC50 came out at 2 nM.

Consider `COc1ccc2[nH]cc(CCN3CC[C@@H](OC(F)F)C3)c2c1` [(R) I-67, (R)-3-(2-(3-(Difluoromethoxy)pyrrolidin-1-yl)ethyl)-5-methoxy-1H-indole], for which the IC50 on human 5-HT1A receptor is 22 nM.
